This is an account of results in patent publication US7569570B2, “Thienopyrimidines, process for preparing the same and use thereof” (Takeda Pharmaceutical Company Limited, priority 2002, dated 2009).

Series [1] concerns the target T1, Rat GnRH Receptor (Rattus norvegicus, UniProt P30969).
T1 construct: Anterior lobes of the pituitary glands were isolated from forty Wistar rats; from tissue; host or cells: rat (Wistar, male, 8 weeks) anterior pituitary membrane fraction
T1 sequence (P30969 1-327): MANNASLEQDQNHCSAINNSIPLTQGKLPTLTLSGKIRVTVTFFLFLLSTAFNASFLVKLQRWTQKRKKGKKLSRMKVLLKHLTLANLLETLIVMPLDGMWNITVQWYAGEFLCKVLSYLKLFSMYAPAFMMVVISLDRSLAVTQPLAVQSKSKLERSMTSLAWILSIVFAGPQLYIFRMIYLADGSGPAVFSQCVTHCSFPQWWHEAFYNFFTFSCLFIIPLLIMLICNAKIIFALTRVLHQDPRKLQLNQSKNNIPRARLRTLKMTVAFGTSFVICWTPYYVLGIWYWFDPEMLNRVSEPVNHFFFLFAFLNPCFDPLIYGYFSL
As to the kind of experiment: 125I-leuprorelin binding inhibition, rat pituitary anterior lobe membrane fraction. The settings on record: 4° C. for 90 minutes, Hill plot. The method, then:
(§1) (1) Preparation of ^125I-Leuprorelin
(§2) To a tube containing 10 μl of a 3×10^−4 M aqueous solution of leuprorelin and 10 μl of 0.01 mg/ml lactoperoxidase, 10 μl (37 MBq) of a solution of Na^125I was added. After stirring, 10 μl of 0.001% H2O2 was added, and a reaction was carried out at room temperature for 20 minutes. By adding 700 μl of a 0.05% TFA (trifluoroacetic acid) solution, the reaction was stopped, and the solution was purified by reversed-phase HPLC. The HPLC conditions are shown below. ^125I-leuprorelin was eluted at a retention time of 26 to 27 minutes.
(2) Preparation of a Pituitary Anterior Lobe Membrane […]
(§3) When the rat pituitary anterior lobe membrane fraction was used, the reaction was conducted at 4° C. for 90 minutes. […] After the filtration, the radioactivity of ^125I-leuprorelin remaining on the filter paper was measured with a γ-counter.
(§4) (TB−SB)/(TB−NSB)×100 (SB: radioactivity when the compound is added, TB: maximum binding radioactivity, NSB: non-specific binding radioactivity) was calculated to find the binding inhibition rate (%) of each test substance. […]

The target of series [2] is T2, Human GnRH Receptor (Homo sapiens, UniProt P30968).
T2 construct: expressed in transfected cells; host or cells: CHO (Chinese hamster ovary) cells
T2 sequence (P30968 1-328): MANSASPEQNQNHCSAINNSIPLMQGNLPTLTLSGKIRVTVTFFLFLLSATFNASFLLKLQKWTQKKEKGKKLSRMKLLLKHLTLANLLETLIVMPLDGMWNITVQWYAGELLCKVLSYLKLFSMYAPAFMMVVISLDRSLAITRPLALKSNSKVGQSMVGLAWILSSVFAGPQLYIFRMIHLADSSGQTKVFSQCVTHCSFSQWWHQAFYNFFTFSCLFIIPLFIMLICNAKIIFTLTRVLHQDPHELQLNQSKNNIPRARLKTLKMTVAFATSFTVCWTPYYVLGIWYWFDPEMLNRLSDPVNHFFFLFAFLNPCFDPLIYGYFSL
As to the kind of experiment: 125I-leuprorelin binding inhibition, membrane fraction of human GnRH receptor-expressing CHO cells. The settings on record: 25° C. for 60 minutes, Hill plot. On the procedure: as §1, §2
(3) Preparation of a CHO (Chinese Hamster Ovarian) Cell Membrane Fraction Containing Human GnRH Receptor
Human GnRH receptor-expressing CHO cells (10^9 cells) were suspended in phosphate-buffered saline supplemented with 5 mM EDTA (PBS-EDTA) and centrifuged at 100×g for 5 minutes. […]
as §3, §4

Structures can show the parent of a compound that is named as a salt. Bounds are passed on as bounds.

As for `CCNC(=O)Nc1ccc(-c2sc3c(c2CN(C)CCOC)c(=O)n(-c2ccccc2)c(=O)n3Cc2c(F)cccc2F)cc1` [Example 112, N-[4-(1-(2,6-difluorobenzyl)-5-{[(2-methoxyethyl)(methyl)amino]methyl}-2,4-dioxo-3-phenyl-1,2,3,4-tetrahydrothieno[2,3-d]pyrimidin-6-yl)phenyl]-N′-ethylurea 1 hydrochloride], the IC50 – broadly, the midpoint of a concentration-inhibition curve – in series [1] was determined as 0.2 µM; in series [2], 0.0001 µM.
As to `CCNC(=O)Nc1ccc(-c2sc3c(c2CN(C)CCOC(C)C)c(=O)n(-c2ccccc2)c(=O)n3Cc2c(F)cccc2F)cc1` [Example 110, N-[4-(1-(2,6-difluorobenzyl)-[(2-(2-propoxy)ethyl(methyl)amino}methyl]-2,4-dioxo-3 phenyl-1,2,3,4-tetrahydrothieno[2,3-d]pyrimidin-6-yl)phenyl]-N′-ethylurea], the melting point (in general, the temperature of the solid-liquid transition) amounted to 224 °C. Moreover, in series [1], the concentration for half-maximal inhibition (IC50) is 0.2 µM. The compound also returned an IC50 in series [2] of under 0.0001 µM.
